Assay results from patent US11547697B2, “Heterocyclic compounds and uses thereof” (MILLENNIUM PHARMACEUTICALS, INC., priority 2009, dated 2023).
Like-named read-outs stand apart in the source and are kept apart here.

Columns and labels:
HCT116 cells = experiment: Cell arrest assay, alone and in combination with MEK inhibitor; assay type: cell-based, human; details: 3 μM compound 54 or 0.3 μM PD0325901, 20 hours
Experimental: Cells are then incubated in the presence of DMSO or inhibitor for 20 hours. The number of cells at each stage in the cell cycle is determined and expressed as a percent of the total, with an increase in the number of cells arrested at pre-GO/G1 indicating effective inhibition of cell cycle progression.

[1] = test system: lupus disease model mice (R2KO, BXSB or MLR/lpr); details: B6.Sle1z.Sle3z model (T. Wu et al.); cited from earlier work
[2] = 5 μM, PBS pH 7.4, 37° C., 24 hours; cited from earlier work
p110α/p85α = p110α/p85α (Homo sapiens (Human), UniProt P42336); experiment: PI 3-Kinase (human) HTRF assay, p110α/p85α; assay type: biochemical; details: read-out: PI3K α IC50
Experimental: (§1) An exemplary system is PI 3-Kinase (human) HTRF™ Assay from Upstate. […] Briefly, the assay is a time resolved FRET assay that indirectly measures PIP3 product formed by the activity of a PI3-K. The kinase reaction is performed in a microtitre plate (e.g., a 384 well microtitre plate). The total reaction volume is approximately 20 ul per well. In the first step, each well receives 2 ul of test compound in 20% dimethylsulphoxide resulting in a 2% DMSO final concentration. Next, approximately 14.5 ul of a kinase/PIP2 mixture (diluted in 1× reaction buffer) is added per well for a final concentration of 0.25-0.3 ug/ml kinase and 10 μM PIP2. The plate is sealed and incubated for 15 minutes at room temperature. To start the reaction, 3.5 ul of ATP (diluted in 1× reaction buffer) is added per well for a final concentration of 10 μM ATP. The plate is sealed and incubated for 1 hour at room temperature. The reaction is stopped by adding 5 ul of Stop Solution per well and then 5 ul of Detection Mix is added per well. The plate is sealed, incubated for 1 hour at room temperature, and then read on an appropriate plate reader. Data is analyzed and IC50s are generated using GraphPad Prism 5. […] For PI3K α, β, δ, and γ, the nM concentration of inhibitor to reach IC50 is provided.

[3] = test system: Human tumor cell lines (e.g., MCF7, U-87 MG, MDA-MB-468, PC-3); experiment: Tumor cell line proliferation assay (Alamar Blue); assay type: cell-based; details: PC3 cells
Experimental: The ability of one or more subject compounds to inhibit tumor cell line proliferation is determined according to standard procedures known in the art. For instance, an in vitro cellular proliferation assay can be performed to measure the metabolic activity of live cells. The assay is performed in a 96 well microtiter plate using Alamar Blue reduction. Human tumor cell lines are obtained from ATCC (e.g., MCF7, U-87 MG, MDA-MB-468, PC-3), grown to confluency in T75 flasks, trypsinized with 0.25% trypsin, washed one time with Tumor Cell Media (DMEM+10% FBS), and plated in 90 ul at 5,000 cells/well in Tumor Cell Media. A compound disclosed herein is diluted in Tumor Cell Media and added in a 10 ul volume. Plates are incubated for 72 hours at 37 C and 5% CO2. A volume of 10 uL of Alamar Blue reagent is added to each well and plates are incubated for 3 hours at 37 C and 5% CO2. Alamar Blue fluoresce is read at 560Ex/590Em, and IC50 values are calculated using GraphPad Prism 5.

p110γ = p110γ (Homo sapiens (Human), UniProt P48736); experiment: PI 3-Kinase (human) HTRF assay, p110γ; assay type: biochemical; details: read-out: PI3K γ IC50
recombinant mTOR = recombinant mTOR (Homo sapiens (Human), UniProt P42345); experiment: mTOR inhibition assay (radiometric or LanthaScreen TR-FRET); assay type: biochemical; details: read-out: MTORC IC50
Experimental: The compounds described herein can be tested against recombinant mTOR (Invitrogen) in an assay containing 50 mM HEPES, pH 7.5, 1 mM EGTA, 10 mM MgCl2, 2.5 mM, 0.01% Tween, 10 pM ATP (2.5 μCi of μ-32P-ATP), and 3 μg/mL BSA. R^at recombinant PHAS-1/4EBP1 (Calbiochem; 2 mg/mL) is used as a substrate. Reactions are terminated by spotting onto nitrocellulose, which is washed with 1M NaCl/1% phosphoric acid (approximately 6 times, 5-10 minutes each). Sheets are dried and the transferred radioactivity quantitated by phosphorimaging.
For instance, one can use Invitrogen's LanthaScreen™ Kinase assay to test the inhibitors of mTOR disclosed herein. This assay is a time resolved FRET platform that measures the phosphorylation of GFP labeled 4EBP1 by mTOR kinase. The kinase reaction is performed in a white 384 well microtitre plate. The total reaction volume is 20 ul per well and the reaction buffer composition is 50 mM HEPES pH7.5, 0.01% Polysorbate 20, 1 mM EGTA, 10 mM MnCl2, and 2 mM DTT. In the first step, each well receives 2 ul of test compound in 20% dimethylsulphoxide resulting in a 2% DMSO final concentration. Next, 8 ul of mTOR diluted in reaction buffer is added per well for a 60 ng/ml final concentration. To start the reaction, 10 ul of an ATP/GFP-4EBP1 mixture (diluted in reaction buffer) is added per well for a final concentration of 10 μM ATP and 0.5 μM GFP-4EBP1. The plate is sealed and incubated for 1 hour at room temperature. […] The plate is sealed, incubated for 1 hour at room temperature, and then read on a plate reader set up for LanthaScreen™ TR-FRET. Data is analyzed and IC50s are generated using GraphPad Prism 5.

p110δ/p85α = p110δ/p85α (Homo sapiens (Human), UniProt O00329); experiment: PI 3-Kinase (human) HTRF assay, p110δ/p85α; assay type: biochemical; details: read-out: PI3K δ IC50
Experimental: as §1

p110β/p85α = p110β/p85α (Homo sapiens (Human), UniProt P42338); experiment: PI 3-Kinase (human) HTRF assay, p110β/p85α; assay type: biochemical; details: read-out: PI3K β IC50
[4] = test system: tumor cells with a PI3Kα mutation (e.g., MDA-MB-361 and T47D); experiment: Proliferation of tumor cells with PI3Kα mutation; assay type: cell-based; details: Homo sapiens, T47D cells
[5] = test system: p190 transduced leukemic cells; details: about 70 mg/kg twice daily, p190 model; cited from earlier work
[6] = 5 μM, human plasma, 37° C.; cited from earlier work
[7] = test system: PI3K/Akt/mTor signaling in blood cells; experiment: Kinase signaling in blood (phosflow); assay type: cell-based; details: splenocytes or peripheral blood mononuclear cells, anti-CD3 stimulation
Experimental: PI3K/Akt/mTor signaling is measured in blood cells using the phosflow method (Methods Enzymol. 2007; 434:131-54). The advantage of this method is that it is by nature a single cell assay so that cellular heterogeneity can be detected rather than population averages. This allows concurrent distinction of signaling states in different populations defined by other markers. Phosflow is also highly quantitative. To test the effects of one or more compounds disclosed herein, unfractionated splenocytes, or peripheral blood mononuclear cells are stimulated with anti-CD3 to initiate T-cell receptor signaling. The cells are then fixed and stained for surface markers and intracellular phosphoproteins.
Similarly, aliquots of whole blood are incubated for 15 minutes with vehicle (e.g., 0.1% DMSO) or kinase inhibitors at various concentrations, before addition of stimuli to crosslink the T cell receptor (TCR) (anti-CD3 with secondary antibody) or the B cell receptor (BCR) using anti-kappa light chain antibody (Fab′2 fragments). After approximately 5 and 15 minutes, samples are fixed (e.g., with cold 4% paraformaldehyde) and used for phosflow. […] The level of phosphrylation of kinase substrates such as Akt and S6 are then measured by incubating the fixed cells with labeled antibodies specific to the phosphorylated isoforms of these proteins. The population of cells is then analyzed by flow cytometry.

[8] = read-out: PC3 proliferation (nM)*
[9] = read-out: PC3 proliferation IC50
[10] = read-out: T47D proliferation IC50

Sequence of p110β/p85α (P42338 whole entry): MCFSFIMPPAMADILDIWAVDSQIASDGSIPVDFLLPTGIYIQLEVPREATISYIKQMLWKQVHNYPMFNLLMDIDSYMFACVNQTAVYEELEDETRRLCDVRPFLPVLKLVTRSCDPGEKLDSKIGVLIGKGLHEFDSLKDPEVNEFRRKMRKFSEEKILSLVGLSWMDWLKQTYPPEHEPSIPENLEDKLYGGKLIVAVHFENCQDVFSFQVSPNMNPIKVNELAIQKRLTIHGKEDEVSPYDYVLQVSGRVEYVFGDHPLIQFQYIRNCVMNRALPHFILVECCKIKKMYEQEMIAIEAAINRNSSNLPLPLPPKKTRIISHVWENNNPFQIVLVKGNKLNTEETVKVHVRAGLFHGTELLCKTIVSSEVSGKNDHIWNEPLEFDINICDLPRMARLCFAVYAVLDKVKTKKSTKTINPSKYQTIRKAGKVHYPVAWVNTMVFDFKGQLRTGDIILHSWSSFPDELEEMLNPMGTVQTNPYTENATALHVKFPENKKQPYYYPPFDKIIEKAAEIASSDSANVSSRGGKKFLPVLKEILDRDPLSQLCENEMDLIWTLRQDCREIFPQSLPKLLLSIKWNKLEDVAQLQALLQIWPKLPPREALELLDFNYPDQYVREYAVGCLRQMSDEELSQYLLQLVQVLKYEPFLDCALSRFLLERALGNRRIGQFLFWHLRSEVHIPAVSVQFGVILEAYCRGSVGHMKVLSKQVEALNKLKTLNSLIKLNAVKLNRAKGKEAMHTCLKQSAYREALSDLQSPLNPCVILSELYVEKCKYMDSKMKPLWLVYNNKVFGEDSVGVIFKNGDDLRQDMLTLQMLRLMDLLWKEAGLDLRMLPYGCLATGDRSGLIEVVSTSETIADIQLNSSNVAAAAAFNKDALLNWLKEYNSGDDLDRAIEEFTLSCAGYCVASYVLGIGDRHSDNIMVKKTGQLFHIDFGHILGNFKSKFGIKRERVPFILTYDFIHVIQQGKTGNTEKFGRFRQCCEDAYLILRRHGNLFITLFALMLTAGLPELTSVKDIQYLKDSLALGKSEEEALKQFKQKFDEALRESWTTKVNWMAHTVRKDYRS
Sequence of p110β/p85α (P27986 whole entry partner): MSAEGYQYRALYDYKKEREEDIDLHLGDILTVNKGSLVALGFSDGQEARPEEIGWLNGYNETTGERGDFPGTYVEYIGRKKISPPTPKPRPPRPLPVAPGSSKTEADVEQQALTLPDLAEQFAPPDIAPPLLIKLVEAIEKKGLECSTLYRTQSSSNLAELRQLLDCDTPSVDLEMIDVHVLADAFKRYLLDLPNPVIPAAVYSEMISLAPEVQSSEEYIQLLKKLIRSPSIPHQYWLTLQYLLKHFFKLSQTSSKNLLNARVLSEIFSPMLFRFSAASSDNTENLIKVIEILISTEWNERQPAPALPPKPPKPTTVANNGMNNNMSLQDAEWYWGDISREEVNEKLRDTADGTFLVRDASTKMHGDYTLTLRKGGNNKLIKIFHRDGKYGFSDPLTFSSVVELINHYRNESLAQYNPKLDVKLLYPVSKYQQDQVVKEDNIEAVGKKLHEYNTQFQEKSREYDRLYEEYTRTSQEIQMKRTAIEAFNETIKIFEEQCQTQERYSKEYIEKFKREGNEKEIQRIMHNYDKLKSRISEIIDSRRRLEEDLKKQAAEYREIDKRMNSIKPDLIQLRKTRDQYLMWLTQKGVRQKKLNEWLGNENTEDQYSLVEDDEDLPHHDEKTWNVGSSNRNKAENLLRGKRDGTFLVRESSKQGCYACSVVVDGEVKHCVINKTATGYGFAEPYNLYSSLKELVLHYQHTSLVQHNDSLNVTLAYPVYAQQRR
Sequence of p110δ/p85α (O00329 whole entry): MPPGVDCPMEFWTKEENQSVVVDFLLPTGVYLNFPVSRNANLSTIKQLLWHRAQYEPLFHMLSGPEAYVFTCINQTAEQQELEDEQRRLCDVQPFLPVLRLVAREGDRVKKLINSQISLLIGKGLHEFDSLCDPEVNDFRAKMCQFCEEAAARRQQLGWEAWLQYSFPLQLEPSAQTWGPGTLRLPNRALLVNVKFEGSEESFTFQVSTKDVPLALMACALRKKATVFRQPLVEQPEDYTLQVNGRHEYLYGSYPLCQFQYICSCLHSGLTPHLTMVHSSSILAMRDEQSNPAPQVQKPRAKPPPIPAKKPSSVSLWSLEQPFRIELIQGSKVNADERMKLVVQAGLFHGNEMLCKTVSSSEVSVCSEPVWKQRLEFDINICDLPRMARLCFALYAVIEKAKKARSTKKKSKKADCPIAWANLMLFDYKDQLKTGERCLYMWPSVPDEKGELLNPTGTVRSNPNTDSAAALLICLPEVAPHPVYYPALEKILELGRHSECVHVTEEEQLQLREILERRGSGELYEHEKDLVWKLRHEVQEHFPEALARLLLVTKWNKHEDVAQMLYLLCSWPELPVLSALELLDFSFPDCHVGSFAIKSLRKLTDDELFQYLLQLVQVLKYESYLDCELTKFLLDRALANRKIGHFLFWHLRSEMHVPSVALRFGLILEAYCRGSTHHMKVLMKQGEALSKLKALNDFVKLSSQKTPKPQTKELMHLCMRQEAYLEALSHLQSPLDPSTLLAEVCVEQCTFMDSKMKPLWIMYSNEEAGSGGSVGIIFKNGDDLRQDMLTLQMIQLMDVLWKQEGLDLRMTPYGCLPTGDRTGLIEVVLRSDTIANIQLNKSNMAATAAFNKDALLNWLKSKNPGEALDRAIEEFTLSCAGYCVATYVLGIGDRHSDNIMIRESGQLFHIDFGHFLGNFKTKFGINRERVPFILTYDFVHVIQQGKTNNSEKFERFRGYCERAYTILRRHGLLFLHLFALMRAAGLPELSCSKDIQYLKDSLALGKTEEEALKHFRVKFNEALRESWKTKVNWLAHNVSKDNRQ
Sequence of p110δ/p85α (P27986 whole entry partner): as the sequence (P27986 whole entry partner) above
Sequence of p110α/p85α (P42336 whole entry): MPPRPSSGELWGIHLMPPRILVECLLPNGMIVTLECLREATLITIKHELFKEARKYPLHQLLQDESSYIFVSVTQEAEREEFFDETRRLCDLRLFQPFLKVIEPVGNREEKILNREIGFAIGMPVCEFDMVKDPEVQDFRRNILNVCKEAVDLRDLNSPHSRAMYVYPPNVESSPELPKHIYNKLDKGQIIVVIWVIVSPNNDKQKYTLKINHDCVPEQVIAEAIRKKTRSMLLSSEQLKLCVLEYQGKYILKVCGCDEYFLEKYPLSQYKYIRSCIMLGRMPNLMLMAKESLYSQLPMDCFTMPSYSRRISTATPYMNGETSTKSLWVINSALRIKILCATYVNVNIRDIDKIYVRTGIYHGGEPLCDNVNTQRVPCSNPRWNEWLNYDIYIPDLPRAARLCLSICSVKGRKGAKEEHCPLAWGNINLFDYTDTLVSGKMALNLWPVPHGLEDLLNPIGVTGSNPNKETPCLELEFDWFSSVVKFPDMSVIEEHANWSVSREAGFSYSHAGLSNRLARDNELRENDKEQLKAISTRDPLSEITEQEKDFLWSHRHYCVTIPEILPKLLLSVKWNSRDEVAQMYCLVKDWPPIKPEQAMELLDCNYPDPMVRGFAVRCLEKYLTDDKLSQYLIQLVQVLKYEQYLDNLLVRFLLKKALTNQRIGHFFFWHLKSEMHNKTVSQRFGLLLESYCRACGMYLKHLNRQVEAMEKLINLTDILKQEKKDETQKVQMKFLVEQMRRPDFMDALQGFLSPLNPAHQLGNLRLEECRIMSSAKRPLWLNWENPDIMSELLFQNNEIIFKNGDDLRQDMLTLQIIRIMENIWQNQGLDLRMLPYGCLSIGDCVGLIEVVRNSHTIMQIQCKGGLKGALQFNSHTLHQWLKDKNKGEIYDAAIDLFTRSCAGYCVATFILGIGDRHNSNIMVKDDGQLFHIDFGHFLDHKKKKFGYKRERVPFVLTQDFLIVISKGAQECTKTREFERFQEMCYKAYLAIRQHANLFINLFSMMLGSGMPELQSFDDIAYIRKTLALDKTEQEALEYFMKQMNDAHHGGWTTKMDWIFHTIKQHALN
Sequence of p110α/p85α (P27986 whole entry partner): as the sequence (P27986 whole entry partner) above
Sequence of p110γ (P48736 whole entry): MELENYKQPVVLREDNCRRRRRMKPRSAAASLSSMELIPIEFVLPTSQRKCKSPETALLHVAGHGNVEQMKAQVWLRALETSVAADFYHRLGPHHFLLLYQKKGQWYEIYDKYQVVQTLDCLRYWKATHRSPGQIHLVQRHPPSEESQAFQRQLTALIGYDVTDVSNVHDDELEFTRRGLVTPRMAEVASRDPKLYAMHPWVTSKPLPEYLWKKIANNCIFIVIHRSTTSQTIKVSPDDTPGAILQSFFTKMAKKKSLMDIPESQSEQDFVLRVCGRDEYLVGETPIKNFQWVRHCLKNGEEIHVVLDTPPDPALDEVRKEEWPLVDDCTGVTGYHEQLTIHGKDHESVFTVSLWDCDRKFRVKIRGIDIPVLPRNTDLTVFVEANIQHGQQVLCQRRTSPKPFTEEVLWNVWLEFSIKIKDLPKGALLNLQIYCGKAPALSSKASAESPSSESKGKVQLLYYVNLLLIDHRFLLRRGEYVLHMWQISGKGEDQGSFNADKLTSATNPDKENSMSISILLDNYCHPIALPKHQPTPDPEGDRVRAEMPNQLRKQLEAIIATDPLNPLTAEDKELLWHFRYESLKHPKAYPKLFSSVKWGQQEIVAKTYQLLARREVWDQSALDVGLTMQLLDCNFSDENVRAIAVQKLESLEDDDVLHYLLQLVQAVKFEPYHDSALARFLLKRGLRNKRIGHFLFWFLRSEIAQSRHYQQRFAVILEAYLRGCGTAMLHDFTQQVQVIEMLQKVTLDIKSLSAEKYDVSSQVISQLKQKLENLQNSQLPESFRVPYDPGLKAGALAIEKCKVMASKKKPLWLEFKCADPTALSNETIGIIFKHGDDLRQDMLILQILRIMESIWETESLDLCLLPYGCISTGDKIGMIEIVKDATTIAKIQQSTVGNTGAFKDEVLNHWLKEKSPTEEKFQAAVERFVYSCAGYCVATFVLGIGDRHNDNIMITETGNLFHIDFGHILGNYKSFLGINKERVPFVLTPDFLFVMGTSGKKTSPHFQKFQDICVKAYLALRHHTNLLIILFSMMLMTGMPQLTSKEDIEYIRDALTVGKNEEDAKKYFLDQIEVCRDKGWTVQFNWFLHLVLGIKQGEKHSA

Row | Structure (SMILES) | IC50 (p110α/p85α) | IC50 [3, 8] | IC50 (p110γ) | IC50 (recombinant mTOR) | IC50 (p110δ/p85α) | IC50 (p110β/p85α) | also measured
1 | O=C(NOC[C@H](O)CO)c1ccc(F)c(F)c1Nc1ccc(I)cc1F [PD0325901, reference compound] | – | – | – | – | – | – | Cell cycle arrest, single inhibitor versus DMSO control (HCT116 cells): some increase in cell cycle arrest by comparison to DMSO control
2 | CO[C@H]1C[C@@H]2CC[C@@H](C)[C@@](O)(O2)C(=O)C(=O)N2CCCC[C@H]2C(=O)O[C@H]([C@H](C)C[C@@H]2CC[C@@H](OCCO)[C@H](OC)C2)CC(=O)[C@H](C)/C=C(\C)[C@@H](O)[C@@H](OC)C(=O)[C@H](C)C[C@H](C)/C=C/C=C/C=C/1C [RAD001] | – | – | – | – | – | – | Effect on lupus symptoms [1]: ameliorate lupus symptoms
3 | O=C(O)CCCc1ccc(N(CCCl)CCCl)cc1 [chlorambucil, 4-[bis(2-chloroethyl)amino]benzenebutanoic acid] | – | – | – | – | – | – | Chemical stability of reference compound [2]: largely hydrolyzed over the course of 24 hours
4 | CC(=O)Nc1nc2ccc(-c3ccc4nccc(-c5ccncc5)c4c3)cc2s1 [compound 2] | < 1 µM | < 10000 nM | < 1 µM | – | – | – | –
5 | Nc1nc2ccc(-c3ccc4nccc(-c5ccncc5)c4c3)cc2o1 [compound 4] | < 0.1 µM | < 100 nM | < 0.1 µM | < 1 µM | < 0.1 µM | < 0.1 µM | –
6 | Nc1nc2cc(-c3ccc4ncc(-c5ccncc5)n4c3)ccc2o1 [compound 6] | < 0.1 µM | < 10000 nM | < 0.1 µM | < 10 µM | < 1 µM | < 10 µM | IC50 ([4]; read-out: T47D proliferation): < 1 µM
7 | Cn1c(=O)n(-c2ccc(C(C)(C)C#N)cc2)c2c3cc(-c4ccc5oc(N)nc5c4)ccc3ncc21 [compound 7] | < 0.1 µM | < 100 nM | < 0.1 µM | < 0.1 µM | < 0.1 µM | < 0.1 µM | –
8 | Nc1nc2cc(-c3ccc4ncc(-c5ccncc5)n4n3)ccc2o1 [compound 10] | < 0.1 µM | < 1000 nM | < 0.1 µM | < 1 µM | – | < 1 µM | IC50 ([4]; read-out: T47D proliferation): < 1 µM
9 | CS(=O)(=O)N1CCN(Cc2cc3nc(-c4ccc5oc(N)nc5c4)nc(N4CCOCC4)c3s2)CC1 [compound 129] | < 0.1 µM | < 1000 nM | < 0.1 µM | < 1 µM | < 1 µM | < 1 µM | –
10 | CN1CCC(N(C)C(=O)c2cnc3ccc(-c4ccc5oc(N)nc5c4)cn23)CC1 [compound 165] | < 1 µM | < 1000 nM | – | – | < 10 µM | < 10 µM | –
11 | CC(=O)Nc1nc2ccc(-c3ccc4oc(N)nc4c3)cc2s1 [compound 231] | – | – | – | – | – | – | IC50 (p110α/p85α; in vitro): < 0.1 µM; IC50 (recombinant mTOR; in vitro): < 10 µM; IC50 [3, 9]: < 10000 nM; IC50 (p110δ/p85α; in vitro): < 0.1 µM; IC50 (p110γ; in vitro): < 0.1 µM; IC50 [4, 10]: < 1 µM; IC50 (p110β/p85α; in vitro): < 1 µM
12 | CC(=O)Nc1cn2cc(-c3ccc4oc(N)nc4c3)ccc2n1 [compound 234] | – | – | – | – | – | – | IC50 (p110α/p85α; in vitro): < 0.1 µM; IC50 (recombinant mTOR; in vitro): < 1 µM; IC50 [3, 9]: < 100 nM; IC50 (p110δ/p85α; in vitro): < 0.1 µM; IC50 (p110γ; in vitro): < 0.1 µM; IC50 [4, 10]: < 1 µM; IC50 (p110β/p85α; in vitro): < 1 µM
13 | Cc1ccc(NC(=O)c2ccc(CN3CCN(C)CC3)cc2)cc1Nc1nccc(-c2cccnc2)n1 [imatinib] | – | – | – | – | – | – | Effect on leukemogenesis [5]: delay but not cure leukemogenesis
14 | CC(C)[N+](C)(CCOC(=O)C1c2ccccc2Oc2ccccc21)C(C)C [propantheline] | – | – | – | – | – | – | Plasma stability of control compounds [6]: intermediate plasma stability
15 | CCCOc1cc(N)ccc1C(=O)OCCN(CC)CC [propoxycaine] | – | – | – | – | – | – | Plasma stability of control compounds [6]: low plasma stability
16 | CO[C@H]1C[C@@H]2CC[C@@H](C)[C@@](O)(O2)C(=O)C(=O)N2CCCC[C@H]2C(=O)O[C@H]([C@H](C)C[C@@H]2CC[C@@H](O)[C@H](OC)C2)CC(=O)[C@H](C)/C=C(\C)[C@@H](O)[C@@H](OC)C(=O)[C@H](C)C[C@H](C)/C=C/C=C/C=C/1C [rapamycin] | – | – | – | – | – | – | anti-CD3 mediated Akt -S473 phosphorylation [7]: enhances Akt phosphorylation; anti-CD3 mediated S6 phosphorylation [7]: inhibits S6 phosphorylation
